# Laboratory results from patent US12521394B2, “Therapeutic compositions and methods for treating cancers” (Pattern Computer, Inc., priority 2019, dated 2026).
# System: Non-malignant S1 cells
# Assay: 3D LrECM culture translational assay, Live/Dead viability/cytotoxicity (Calcein AM/EthD-1), non-malignant cells
# Type: cell-based
# Settings: 3D culture, FIG. 8B
# Protocol: Twenty-one compounds were received and reconstituted to yield 10 mM stock solution. Compounds were independently tested on a 2D culture assay to determine cell survival. Combinations of compounds were then tested on a 6×6 matrix on 2D culture to determine synergistic dosing. Then functional validation of the synergistic combinations was determined in 3D culture. (See FIG. 2).
# Non-malignant S1 and Malignant T4-2 cells were evaluated for growth inhibition or cell death with the determined concentrations. The cells were plated at a density of 2×10^4 (S1) or 1×10^4 (T4-2) cells per well on top of Matrigel layer and allowed to form multicellular tumor colonies for 4-5 days. Then the cells were treated with either single-drug or drug combinations as PCI designed to evaluate synergistic interactions. Fresh media containing testing drugs were replenished every other day. At the end of the assay, we analyzed morphology and viability/cytotoxicity using phase imaging and fluorescent detection with Live/Dead using viability/cytotoxicity (Calcein AM/EthD-1) kit (FIG. 8). 3D translational assay in non-malignant S1 and malignant T4-2 cells were repeated 3 times.
smiles,measurement,value
"COC[C@H](NC(=O)c1cnc(C)s1)C(=O)N[C@@H](COC)C(=O)N[C@@H](Cc1ccccc1)C(=O)[C@@]1(C)CO1 [Oprozomib, N-[(2S)-3-methoxy-1-[[(2S)-3-methoxy-1-[[(2S)-1-[(2R)-2-methyloxiran-2-yl]-1-oxo-3-phenylpropan-2-yl]amino]-1-oxopropan-2-yl]amino]-1-oxopropan-2-yl]-2-methyl-1,3-thiazole-5-carboxamide]",cell proliferation in non-malignant S1 cells,promoted cell proliferation
